Laboratory results reported in BindingDB's records for doi:10.1016/s1074-5521(98)90086-2 (Duke University, 1998).

biological target: 1-aminocyclopropane-1-carboxylate oxidase 1 (Malus domestica, UniProt Q00985); test: Inhibition Assay
Text: Enzyme inhibition assay using ethylene-forming enzyme (EFE).

1-aminocyclopropane-1-carboxylate oxidase 1, sequence (Q00985 whole entry): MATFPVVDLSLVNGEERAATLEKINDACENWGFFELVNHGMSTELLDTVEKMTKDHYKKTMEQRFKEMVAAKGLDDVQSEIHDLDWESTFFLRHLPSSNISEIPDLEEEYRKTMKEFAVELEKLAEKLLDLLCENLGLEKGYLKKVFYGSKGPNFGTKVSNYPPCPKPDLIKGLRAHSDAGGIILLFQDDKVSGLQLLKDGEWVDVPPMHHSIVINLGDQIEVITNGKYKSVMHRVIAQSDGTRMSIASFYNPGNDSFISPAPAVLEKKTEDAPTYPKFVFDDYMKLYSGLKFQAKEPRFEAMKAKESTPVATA

Structure (SMILES) | Ki [µM]
NC1(C(=O)O)CCC1 [Aminocyclobutanecarboxylic acid (ACBC)] | 220
CC(C)(NO)C(=O)O [N-hydroxy aminoisobutryic acid] | 13
CC(C)(N)C(=O)O [Aminoisobutyric (AIB)] | 150
O=C(O)C1(NO)CCC1 [N-Hydroxyaminocyclobutanecarboxylic acid] | 18
